We go through five compounds from patent US8865656B2, “Beta-hairpin peptidomimetics having CXCR4 antagonizing activity” (Polyphor AG, priority 2009, dated 2014).

Data set [1] concerns the target T1, human CXCR4 (Homo sapiens, UniProt P61073).
T1 construct: expressed in transfected cells; host or cells: mouse pre-B cell line 300-19
The experiment in a line: Ca2+-assay: CXCR4-antagonizing activity (SDF-1 induced calcium mobilization). It is filed as cell-based. Particulars: mouse pre-B cell line 300-19 stably transfected with human CXCR4, read-out: IC50% [nM] ± SD, CXCR4 receptor. The text has this:
2.3. Ca^2+-Assay: CXCR4-Antagonizing Activity of the Peptides
Increases in intracellular calcium were monitored using a Flexstation 384 (Molecular Devices, Sunnyvale, Calif.) to assay the depsipeptides for CXCR4 antagonism in a mouse pre-B cell line 300-19 stably transfected with human CXCR4 (E. Oberlin, A. Amara, F. Bachelerie, C. Bessia, J.-L. Virelizier, F. Arenzana-Seisdedos, O. Schwartz, J.-M. Heard, I. Clark-Lewis, D. F. Legler, M. Loetscher, M. Baggiolini, B. Moser, Nature 1996, 382, 833-835; M. Loetscher, T. Geiser, T. O'Reilly, R. Zwalen, M. Baggiolini, B. Moser, J. Biol. Chem. 1994, 269, 232-237; M. D'Apuuo, A. Rolink, M. Loetscher, J. A. Hoxie, I. Clark-Lewis, F. Melchors, M. Baggiolini, B. Moser, Eur. J. Immunol. 1997, 27, 1788-1793). The cells were batch loaded with the Calcium 4 Assay kit (Molecular Devices) in assay buffer (Hanks Balanced salt solution [HBSS], 20 mM HEPES, pH 7.4, 0.1% BSA) for 1 h at room temperature and labeled cells were dispensed into black 96 well assays plates (Costar No. 3603). Calcium mobilization induced by stromal-derived factor-1 (SDF-1) was measured in the Flexstation 384 (excitation: 485 nm; emission: 525 nm) for 90 seconds. Antagonist activity of peptides was determined by spiking the cells with compounds prior to SDF-1 addition. Dose response curves (compound concentration versus % maximum response for SDF-1) were determined for each antagonist and IC50 values were calculated by fitting the data to a four parameter logistic equation using SoftmaxPro 4.8 (Molecular Devices).

The nature of data set [2]: in vitro. It is filed as cell-based. The method, then: (§1) The cytotoxicity of the depsipeptides to HELA cells (Acc57) and COS-7 cells (CRL-1651) was determined using the MTT reduction assay (T. Mossman, J. Immunol. Meth. 1983, 65, 55-63; M. V. Berridge, A. S. Tan, Arch. Biochem. Biophys. 1993, 303, 474-482). Briefly, the method was as follows: 7000 HELA cells/well and 4500 COS-7 cells/well were seeded and grown in 96-well microtiter plates for 24 h at 37° C. at 5% CO2. Thereafter, time zero (Tz) was determined by MTT reduction (see below). The supernatant of the remaining wells was discarded, and fresh medium and compounds in serial dilutions (12.5, 25 and 50 μM, triplicates) were pipetted into the wells. After incubation of the cells for 48 h at 37° C. at 5% CO2 the supernatant was discarded again and 100 μL MTT reagent (0.5 mg/mL in RPMI1640 and DMEM, respectively)/well was added. Following incubation at 37° C. for 2 h the media were aspirated and the cells were spiked (100 μL isopropanol/well). The absorbance of the solubilized formazan was measured at 595 nm (OD595peptide). For each concentration averages were calculated from triplicates. The percentage of growth was calculated as follows: (OD595peptide-OD595Tz-OD595Empty well)/(OD595Tz-OD595Empty well)×100%. The GI50 (Growth Inhibition) concentrations were calculated for each depsipeptide by using a trend line function for the concentrations (50, 25, 12.5 and 0 μM), the corresponding percentages and the value 50, (=TREND (C50:C0, %50:%0, 50).

Data set [3] can be described thus: in vitro. The class given is cell-based. The protocol: as §1
The source holds these as a separate data set.

Data set [4] concerns human red blood cells (hRBC). Particulars: red cells of human, 1 h. The protocol: The peptides were tested for their hemolytic activity against human red blood cells (hRBC). Fresh hRBC were washed three times with phosphate buffered saline (PBS) and centrifuged for 10 min at 2000×g. Compounds (100 μM) were incubated with 20% hRBC (v/v) for 1 h at 37° C. The final erythrocyte concentration was approximately 0.9×10^9 cells/mL. A value of 0% and 100% cell lyses, respectively, was determined by incubation of hRBC in the presence of PBS alone and 0.1% Triton X-100 in H2O, respectively. The samples were centrifuged, the supernatants were 20-fold diluted in PBS buffer and the optical densities (OD) were measured at 540 nm.
Percent hemolysis was calculated as follows: (OD540peptide/OD540H2O)×100%.

Data set [5] in a line: Plasma stability in human plasma. Particulars: human plasma, 37° C., sampling up to 240 min. The protocol:
(§2) The stability of the peptides in human and mouse plasma was determined by applying the following method: 315 μL/deep well of freshly thawed human plasma (Basler Blutspende-dienst) and mouse plasma (Harlan Sera-Lab, UK), respectively, were spiked with 35 μL/well of compound in PBS (100 μM, triplicate) and incubated at 37° C. […] Following shaking for 2 min the occurred suspensions were filtrated by vacuum and finally, 100 μL of each filtrate were transferred to a propylene microtiter plate, and analyzed by LC/MS as follows: Column: Waters, XBridge C18, mobile phases: (A) water+0.1% formic acid and (B) acetonitrile/water, 95/5 (v/v)+0.1% formic acid, gradient: 5%-100% (B) in 2 minutes, electrospray ionization, MRM detection (triple quadrupole). The peak areas were determined and triplicate values are averaged. The stability is expressed in percent of the initial value at t=0. (tx/to×100). By using the TREND function of EXCEL (Microsoft Office 2003) T1/2 were determined.

Data set [6] in a line: Plasma stability in mouse plasma. Particulars: mouse plasma, 37° C., sampling up to 240 min. The protocol:
as §2

Like-named read-outs stand apart in the source and are kept apart here. Positions of bridges follow the written chain, without caps; N, C: chain ends. Non-standard residues stand in square brackets, D forms with d. Residues, ends and D or L forms follow the SMILES beside them. ξ: configuration not given here. Dab = NCC[C@H](N)C(=O)O; ξT = CC(O)C(N)C(=O)O

T1 sequence (P61073 whole entry): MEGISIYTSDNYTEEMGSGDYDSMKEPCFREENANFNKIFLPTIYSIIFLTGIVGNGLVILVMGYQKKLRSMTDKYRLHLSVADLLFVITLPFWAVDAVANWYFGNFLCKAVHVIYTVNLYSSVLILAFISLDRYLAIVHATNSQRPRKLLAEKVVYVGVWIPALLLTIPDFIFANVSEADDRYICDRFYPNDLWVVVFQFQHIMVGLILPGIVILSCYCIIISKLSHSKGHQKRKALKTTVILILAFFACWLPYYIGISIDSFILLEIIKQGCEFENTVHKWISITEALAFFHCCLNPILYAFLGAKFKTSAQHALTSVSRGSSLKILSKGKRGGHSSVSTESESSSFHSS

Consider `C[C@@H]1NC(=O)[C@H](Cc2c[nH]cn2)NC(=O)[C@H](Cc2ccc(O)cc2)NC(=O)[C@@H]2CCCN2C(=O)[C@@H](CC2CCCCC2)NC(=O)[C@H](CCCCN)NC(=O)[C@H](CCC(N)=O)NC(=O)[C@H](Cc2ccc(O)cc2)NC(=O)[C@@H]2CSSC[C@H](NC1=O)C(=O)N[C@@H](CO)C(=O)N[C@@H](C)C(=O)N1CCC[C@@H]1C(=O)N[C@@H](CCN)C(=O)N[C@@H](CCCNC(=N)N)C(=O)N[C@@H](Cc1ccc(O)cc1)C(=O)N2` [Ex. 1], for which the IC50 in data set [1] worked out at 1.3 ± 0.4 nM. Moreover, the GI50 in data set [2] (human) and in data set [3] (African green monkey) was > 50 µM throughout. Further, in data set [4], the “Hemolysis at 100 μM” value turned out to be 0%. Moreover, the “Plasmastability human pl. T1/2” value in data set [5] came to 4 h. Besides, in data set [6], the “Plasmastability mouse pl. T1/2” value came out at 4 h.

Turning to `CC[C@@H](C)[C@@H]1C(=O)N2CCC[C@H]2C(=O)N[C@@H](Cc2ccc(O)cc2)C(=O)N[C@@H](Cc2c[nH]cn2)C(=O)N[C@@H](C)C(=O)N[C@H]2CSSC[C@H](NC(=O)[C@H](Cc3ccc(O)cc3)NC(=O)[C@H](CCCNC(=N)N)NC(=O)[C@H](CCN)NC(=O)[C@H]3CCCN3C(=O)[C@H](C)NC(=O)[C@H](CO)NC2=O)C(=O)N[C@@H](Cc2ccc(O)cc2)C(=O)N[C@@H](CCC(N)=O)C(=O)N[C@@H](CCCCN)C(=O)N1C` [compound 2], the IC50 in data set [1] was determined as 1.22 ± 1 nM. For the same compound, the GI50 in data set [2] (human) and in data set [3] (African green monkey) was > 50 µM throughout. For the same compound, in data set [4], the “Hemolysis at 100 μM” value came to 0.6%. Also, the “Plasmastability human pl. T1/2” value in data set [5] was determined as 4 h. In data set [6], the “Plasmastability mouse pl. T1/2” value was 4 h.

As to `C[C@@H]1NC(=O)[C@H](Cc2c[nH]cn2)NC(=O)[C@H](Cc2ccc(O)cc2)NC(=O)[C@@H]2CCCN2C(=O)[C@@H](Cc2cn(Cc3ccccc3)cn2)NC(=O)[C@H](CCCCN)NC(=O)[C@H](CCC(N)=O)NC(=O)[C@H](Cc2ccc(O)cc2)NC(=O)[C@@H]2CSSC[C@H](NC1=O)C(=O)N[C@@H](CO)C(=O)N[C@@H](C)C(=O)N1CCC[C@@H]1C(=O)N[C@@H](CCN)C(=O)N[C@@H](CCCNC(=N)N)C(=O)N[C@@H](Cc1ccc(O)cc1)C(=O)N2` [compound 5], the IC50 in data set [1] was 0.92 ± 0.2 nM. Moreover, the GI50 in data set [2] (human) and in data set [3] (African green monkey) was > 50 µM in each case. Besides, in data set [4], the “Hemolysis at 100 μM” value is listed as 1%. Besides, in data set [5], the “Plasmastability human pl. T1/2” value was determined as 4 h. Also, the “Plasmastability mouse pl. T1/2” value in data set [6] turned out to be 4 h.

Consider `C[C@@H]1NC(=O)[C@H](Cc2c[nH]cn2)NC(=O)[C@H](Cc2ccc(O)cc2)NC(=O)[C@@H]2CCCN2C(=O)[C@@H](Cc2ccncc2)NC(=O)[C@H](CCCCN)NC(=O)[C@H](CCC(N)=O)NC(=O)[C@H](Cc2ccc(O)cc2)NC(=O)[C@@H]2CSSC[C@H](NC1=O)C(=O)N[C@@H](CO)C(=O)N[C@@H](C)C(=O)N1CCC[C@@H]1C(=O)N[C@@H](CCN)C(=O)N[C@@H](CCCNC(=N)N)C(=O)N[C@@H](Cc1ccc(O)cc1)C(=O)N2` [compound 6], for which the IC50 in data set [1] turned out to be 0.17 ± 0.1 nM. Moreover, the 50% growth inhibitory concentration (GI50) in data set [2] (human) and in data set [3] (African green monkey) was > 50 µM each time. In addition, the “Hemolysis at 100 μM” value in data set [4] stood at 2.4%. In addition, in data set [5], the “Plasmastability human pl. T1/2” value stood at 4 h. Also, the “Plasmastability mouse pl. T1/2” value in data set [6] was 4 h.

On to `CC(O)C1NC(=O)[C@@H]2CSSC[C@H](NC(=O)[C@H](Cc3ccc(O)cc3)NC(=O)[C@H](CCCNC(=N)N)NC(=O)[C@H](CCN)NC(=O)[C@H]3CCCN3C(=O)[C@H](C)NC1=O)C(=O)N[C@@H](Cc1ccc(O)cc1)C(=O)N[C@@H](CCC(N)=O)C(=O)N[C@@H](CCCCN)C(=O)N1CCC[C@@H]1C(=O)N1CCC[C@H]1C(=O)N[C@@H](Cc1ccc(O)cc1)C(=O)N[C@@H](Cc1c[nH]cn1)C(=O)N[C@@H](C)C(=O)N2` (some centres unmarked) [compound 17] (cyclo(YHAC[ξT]A[dP][Dab]RYCYQK[dP]P); disulfide 4-11), for which the GI50 in data set [2] and in data set [3] was > 50 µM each time. For the same compound, the “Hemolysis at 100 μM” value in data set [4] came to 1%. Also, the “Plasmastability human pl. T1/2” value in data set [5] came out at 4 h. In addition, in data set [6], the “Plasmastability mouse pl. T1/2” value came to 4 h.
